Data as given in article PMC4370448, “Advanced Enzymology, Expression Profile and Immune Response of Clonorchis sinensis Hexokinase Show Its Application Potential for Prevention and Control of Clonorchiasis” (PLoS Neglected Tropical Diseases, 2015).

How the values were obtained:
rCsHK [1] = target: T1, rCsHK (Clonorchis sinensis, UniProt G7YJ23); assay: G6PD-coupled NADPH formation at […] nm, Hill fit; assay type: biochemical; details: 3 mM glucose, 15 mM MgCl2, pH 8.5
T1 construct: gene CLF_109217
T1 sequence (G7YJ23 1-449): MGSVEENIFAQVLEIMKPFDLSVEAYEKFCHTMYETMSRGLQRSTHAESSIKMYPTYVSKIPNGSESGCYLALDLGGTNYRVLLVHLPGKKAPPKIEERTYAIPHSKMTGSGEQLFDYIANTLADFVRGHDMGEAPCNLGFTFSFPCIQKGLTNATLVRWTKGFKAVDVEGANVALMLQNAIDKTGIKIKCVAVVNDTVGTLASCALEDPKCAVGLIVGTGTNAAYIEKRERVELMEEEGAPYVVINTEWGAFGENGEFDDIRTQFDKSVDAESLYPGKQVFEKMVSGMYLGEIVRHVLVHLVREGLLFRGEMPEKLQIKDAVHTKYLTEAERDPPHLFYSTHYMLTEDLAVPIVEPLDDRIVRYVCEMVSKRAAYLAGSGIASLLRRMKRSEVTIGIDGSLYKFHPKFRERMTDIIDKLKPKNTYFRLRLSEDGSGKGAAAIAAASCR

rCsHK [2] = target: T1, rCsHK; assay: G6PD-coupled NADPH formation at […] nm; assay type: biochemical; details: read-out: % inhibition at 10 mM

Structure (SMILES)	inhibition at 10000 µM (rCsHK [2]) [%]	other results
C=C(OP(=O)(O)O)C(=O)O [PEP]	–	G6PD-coupled NADPH formation at 340 nm, Hill fit (rCsHK [1]; 0-10 mM, allosteric activator, mixed K+V+ with respect to ATP): PEP displayed allosteric activation of rCsHK with respect to ATP
Nc1ncnc2c1ncn2[C@@H]1O[C@H](COP(=O)(O)O)[C@@H](O)[C@H]1O [AMP]	–	G6PD-coupled NADPH formation at 340 nm, Hill fit (rCsHK [1]; 0-5 mM, allosteric activator, mixed K+V+ with respect to ATP): AMP exhibited a mixed allosteric K+V+ effect
Nc1ccn([C@@H]2O[C@H](COP(=O)(O)OP(=O)(O)OP(=O)(O)O)[C@@H](O)[C@H]2O)c(=O)n1 [CTP]	8.6	–
O=C(O)CC(O)(CC(=O)O)C(=O)O [citrate]	–	G6PD-coupled NADPH formation at 340 nm, Hill fit (rCsHK [1]; 0-10 mM, allosteric, K+V+ activator at 5 and 10 mM, net inhibition (K-V+) at 2 mM, with respect to ATP): Citrate exhibited an unusual mixed allosteric effect on rCsHK with respect to ATP
Nc1ncnc2c1ncn2[C@@H]1O[C@H](COP(=O)(O)OP(=O)(O)OP(=O)(O)O)[C@@H](O)[C@H]1O [ATP]	13.8	–
Cc1cn([C@H]2C[C@H](O)[C@@H](COP(=O)(O)OP(=O)(O)OP(=O)(O)O)O2)c(=O)[nH]c1=O [TTP]	14.3	–
